According to patent publication EP4722201A1, “3-PHENYLISOXAZOLINE-5-CARBOXAMIDE COMPOUND, AND PREPARATION METHOD THEREFOR, HERBICIDAL COMPOSITION THEREOF AND USE THEREOF” (Jiangsu Flag Chemical Industry Co., Ltd, priority 2023, dated 2024):

What was measured:
Test in all cases: Indoor herbicide activity determination, Seed Treatment; pre-emergence (soil spray)
Assay type in all cases: in vivo
[1] = system: Eleusine indica
From the text: (§1) The testing method for herbicide activity of the compound of the present invention was as follows:
(§2) Seed Treatment; pre-emergence: quantitative seeds of gramineous weeds (Echinochloa crusgalli, Eleusine indica, Digitaria sanguinalis, Alopecurus japonicus, Beckmannia syzigachne, Leptochloa chinensis, Polypogon fugax, Alopecurus aequalis, Lolium multiflorum, Poa annua, Aegilops tauschii, Avena fatua, Alopecurus myosuroides, Alopecurus japonicus and Alopecurus aequalis), broad-leaved weeds (Eclipta prostrata, Amaranthus retroflexus, Rorippa indica, Malachium aquaticum, Veronica polita, Conyza canadensis, Sesbania cannabina, Sagittariatrifolia and Schoenoplectiella juncoides), and Cyperus iria were sown in plastic pots having a diameter of 7 cm and holes at the bottom and filled with nutrient soil (sandy soil, pH 6.1, organic matter 1%) respectively, the seeds were covered with an appropriate amount of soil after being sown, then the soil was wetted with water from the bottom, the seeds were cultured in a constant-temperature illuminated culture room for 24 h, and the soil was sprayed by using a 3WP-2000 traveling spray tower produced by the Nanjing Institute of Agricultural Mechanization of the Ministry of Agriculture, where a rotational speed of a main shaft was 96 mm/r, a spray height was 300 mm, an effective spraying range of a nozzle was 350 mm, a spray area was 0.35 m^2, and a flow rate at the nozzle was 390 mL/min.
(§3) Post-emergence: an appropriate quantity of seeds of gramineous weeds (Echinochloa crusgalli, Eleusine indica, Digitaria sanguinalis, Alopecurus japonicus, Beckmannia syzigachne, Leptochloa chinensis, Polypogon fugax, Alopecurus aequalis, Lolium multiflorum, Poa annua, Aegilops tauschii, Avena fatua, Alopecurus myosuroides, Alopecurus japonicus and Alopecurus aequalis), broad-leaved weeds (Eclipta prostrata, Amaranthus retroflexus, Rorippa indica, Malachium aquaticum, Veronica polita, Conyza canadensis, Sesbania cannabina, Sagittariatrifolia and Schoenoplectiella juncoides), and Cyperus iria were sown in plastic pots having a diameter of 7 cm and holes at the bottom and filled with nutrient soil (sandy soil, pH 6.1, organic matter 1%) respectively, the seeds were covered with an appropriate amount of soil after being sown, then the soil was wetted with water from the bottom, the seeds were cultured in a constant-temperature illuminated culture room until a 2-4 leaf stage, and stems and leaves underwent spray treatment. After the treatment, the test materials were placed in a laboratory and cultured in the constant-temperature illuminated culture room after the liquid was naturally dry in the shade, and results were determined 21 days later. Inhibition rate of fresh weight % = (1−(fresh weight of treated plants)/(fresh weight of control plants)) × 100% [formula]

[2] = system: Alopecurus myosuroides
From the text: as §1, §2, §3

[3] = system: Digitaria sanguinalis; conditions: read-out: Herbicidal activities (inhibition rate) Digitaria sanguinalis; for inhibition at 60 g/ha: 60 g a.i./ha
From the text: as §1, §2, §3

[4] = system: Lolium multiflorum
From the text: as §1, §2, §3

[5] = system: Eclipta prostrata; conditions: read-out: Herbicidal activities (inhibition rate) Eclipta prostrata; for inhibition at 120 g/ha: 120 g a.i./ha; for inhibition at 60 g/ha: 60 g a.i./ha
From the text: as §1, §2, §3

[6] = system: Leptochloa chinensis
From the text: as §1, §2, §3

[7] = system: Alopecurus japonicus
From the text: as §1, §2, §3

[8] = system: Cyperus iria; conditions: read-out: Herbicidal activities (inhibition rate) Cyperus iria; for inhibition at 120 g/ha: 120 g a.i./ha; for inhibition at 60 g/ha: 60 g a.i./ha
From the text: as §1, §2, §3

[9] = system: Aegilops tauschii; conditions: read-out: Herbicidal activities (inhibition rate) Aegilops tauschii; for inhibition at 60 g/ha: 60 g a.i./ha
From the text: as §1, §2, §3

| SMILES | Herbicidal activities, Eleusine indica (inhibition rate class) ([1]; Dosage 120 g a.i./ha) | Herbicidal activities, Alopecurus myosuroides (inhibition rate class) ([2]; Dosage 120 g a.i./ha) | Herbicidal activities, Lolium multiflorum (inhibition rate class) ([4]; Dosage 120 g a.i./ha) | inhibition at 60 g/ha [5] [%] | Herbicidal activities, Leptochloa chinensis (inhibition rate class) ([6]; Dosage 120 g a.i./ha) | inhibition at 60 g/ha [9] [%] | Herbicidal activities, Alopecurus japonicus (inhibition rate class) ([7]; Dosage 120 g a.i./ha) | inhibition at 60 g/ha [8] [%] | inhibition at 60 g/ha [3] [%] | also measured |
| --- | --- | --- | --- | --- | --- | --- | --- | --- | --- | --- |
| C=CC1(C(=O)N[C@H]2C[C@@H](C(=O)OC)C2)CC(c2cc(F)cc(F)c2)=NO1 (some centres unmarked) [I-3] | – | – | – | – | – | – | – | – | – | Herbicidal activities, Eleusine indica (inhibition rate class) ([1]; Dosage 240 g a.i./ha): A (A indicates that the inhibition rate was greater than or equal to 80% to 100%); Herbicidal activities, Alopecurus myosuroides (inhibition rate class) ([2]; Dosage 240 g a.i./ha): A (A indicates that the inhibition rate was greater than or equal to 80% to 100%); inhibition at 120 g/ha ([3]; 120 g a.i./ha): 80 to 100%; Herbicidal activities, Lolium multiflorum (inhibition rate class) ([4]; Dosage 240 g a.i./ha): A (A indicates that the inhibition rate was greater than or equal to 80% to 100%); inhibition at 120 g/ha [5]: 80 to 100%; Herbicidal activities, Leptochloa chinensis (inhibition rate class) ([6]; Dosage 240 g a.i./ha): A (A indicates that the inhibition rate was greater than or equal to 80% to 100%); Herbicidal activities, Alopecurus japonicus (inhibition rate class) ([7]; Dosage 240 g a.i./ha): A (A indicates that the inhibition rate was greater than or equal to 80% to 100%); inhibition at 120 g/ha [8]: 80 to 100% |
| C=C[C@]1(C(=O)N[C@H]2C[C@@H](C(=O)O[C@H](C)COC)C2)CC(c2cc(F)cc(Cl)c2)=NO1 [I-33] | A (A indicates that the inhibition rate was greater than or equal to 80% to 100%) | A (A indicates that the inhibition rate was greater than or equal to 80% to 100%) | A (A indicates that the inhibition rate was greater than or equal to 80% to 100%) | 80 to 100 | A (A indicates that the inhibition rate was greater than or equal to 80% to 100%) | 60 to 80 | A (A indicates that the inhibition rate was greater than or equal to 80% to 100%) | 60 to 80 | – | – |
| C=C[C@]1(C(=O)N[C@H]2C[C@@H](C(=O)O[C@@H](C)COC)C2)CC(c2cc(F)cc(Cl)c2)=NO1 [I-34] | A (A indicates that the inhibition rate was greater than or equal to 80% to 100%) | A (A indicates that the inhibition rate was greater than or equal to 80% to 100%) | B (B indicates that the inhibition rate was greater than or equal to 60% to less than 80%) | 80 to 100 | A (A indicates that the inhibition rate was greater than or equal to 80% to 100%) | 60 to 80 | B (B indicates that the inhibition rate was greater than or equal to 60% to less than 80%) | 60 to 80 | – | – |
| C=C[C@]1(C(=O)N[C@H]2C[C@@H](C(=O)OCC3CC3)C2)CC(c2cc(F)cc(Cl)c2)=NO1 [I-35] | A (A indicates that the inhibition rate was greater than or equal to 80% to 100%) | A (A indicates that the inhibition rate was greater than or equal to 80% to 100%) | A (A indicates that the inhibition rate was greater than or equal to 80% to 100%) | 60 to 80 | A (A indicates that the inhibition rate was greater than or equal to 80% to 100%) | 60 to 80 | A (A indicates that the inhibition rate was greater than or equal to 80% to 100%) | 60 to 80 | – | – |
| C=C[C@]1(C(=O)N[C@H]2C[C@@H](C(=O)NOC(C)C)C2)CC(c2cc(F)cc(Cl)c2)=NO1 [I-36] | A (A indicates that the inhibition rate was greater than or equal to 80% to 100%) | A (A indicates that the inhibition rate was greater than or equal to 80% to 100%) | B (B indicates that the inhibition rate was greater than or equal to 60% to less than 80%) | 60 to 80 | A (A indicates that the inhibition rate was greater than or equal to 80% to 100%) | 60 to 80 | A (A indicates that the inhibition rate was greater than or equal to 80% to 100%) | 60 to 80 | – | – |
| C=C[C@]1(C(=O)N[C@H]2C=C[C@@H](C(=O)OCCOC)C2)CC(c2cc(F)cc(C(F)(F)F)c2)=NO1 [I-443] | A (A indicates that the inhibition rate was greater than or equal to 80% to 100%) | – | – | 80 to 100 | A (A indicates that the inhibition rate was greater than or equal to 80% to 100%) | – | – | 80 to 100 | 80 to 100 | – |
| COC(=O)[C@@H]1C=C[C@H](NC(=O)C2(C)CC(c3cc(F)cc(C(F)(F)F)c3)=NO2)C1 (some centres unmarked) [I-495] | – | – | – | – | – | – | – | – | – | Herbicidal activity (inhibition rate class), Eleusine indica ([1]; Dosage 240 g a.i./ha): A (A indicates that the inhibition rate was greater than or equal to 80% to 100%); Herbicidal activity (inhibition rate class), Alopecurus myosuroides ([2]; Dosage 240 g a.i./ha): A (A indicates that the inhibition rate was greater than or equal to 80% to 100%); Herbicidal activity (inhibition rate class), Lolium multiflorum ([4]; Dosage 240 g a.i./ha): A (A indicates that the inhibition rate was greater than or equal to 80% to 100%); inhibition at 120 g/ha [5]: 60 to 80%; Herbicidal activity (inhibition rate class), Leptochloa chinensis ([6]; Dosage 240 g a.i./ha): A (A indicates that the inhibition rate was greater than or equal to 80% to 100%); inhibition at 120 g/ha ([9]; 120 g a.i./ha): 80 to 100%; Herbicidal activity (inhibition rate class), Alopecurus japonicus ([7]; Dosage 240 g a.i./ha): A (A indicates that the inhibition rate was greater than or equal to 80% to 100%); inhibition at 120 g/ha [8]: 80 to 100% |
| C[C@]1(C(=O)N[C@H]2C=C[C@@H](C(=O)OCCBr)C2)CC(c2cc(F)cc(C(F)(F)F)c2)=NO1 [I-501] | – | – | – | 60 to 80 | – | – | – | 60 to 80 | 80 to 100 | Herbicidal activity (inhibition rate class), Eleusine indica ([1]; Dosage 120 g a.i./ha): A (A indicates that the inhibition rate was greater than or equal to 80% to 100%); Herbicidal activity (inhibition rate class), Leptochloa chinensis ([6]; Dosage 120 g a.i./ha): A (A indicates that the inhibition rate was greater than or equal to 80% to 100%) |
| COC(=O)[C@@H]1C=C[C@H](NC(=O)[C@@]2(C(F)(F)F)CC(c3cc(Cl)cc(C(F)(F)F)c3)=NO2)C1 [I-524] | – | – | – | 60 to 80 | – | – | – | 80 to 100 | 80 to 100 | Herbicidal activity (inhibition rate class), Eleusine indica ([1]; Dosage 120 g a.i./ha): A (A indicates that the inhibition rate was greater than or equal to 80% to 100%); Herbicidal activity (inhibition rate class), Alopecurus myosuroides ([2]; Dosage 120 g a.i./ha): B (B indicates that the inhibition rate was greater than or equal to 60% to less than 80%); Herbicidal activity (inhibition rate class), Leptochloa chinensis ([6]; Dosage 120 g a.i./ha): A (A indicates that the inhibition rate was greater than or equal to 80% to 100%); Herbicidal activity (inhibition rate class), Alopecurus japonicus ([7]; Dosage 120 g a.i./ha): A (A indicates that the inhibition rate was greater than or equal to 80% to 100%) |
